Test results as given in US6806230B1, “Pyrimidine derivatives and herbicides containing them” (Kumiai Chemical Industry Co., Ltd., priority 1999, dated 2004).

Columns and labels:
Type in all cases: in vivo
green foxtail (Se) = assay: Test Example 2: herbicidal effects by upland soil treatment; details: dose 100 g active ingredient per 10 ares, examined on the 21st day after treatment, standards of Table 44;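 also: 0-5 growth inhibition grade; 5 = over 90%; 4 = 70-90%; 3 = 50-70%; 2 = 30-50%; 1 = 10-30%; 0 = under 10%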
Procedure: In a 80 cm^2 plastic pot, upland soil was filled, and seeds of barnyard grass (Ec) and green foxtail (Se) were sown and covered with soil. A wettable powder prepared in accordance with Formulation Example 1 was diluted with water and uniformly applied to the soil surface by means of a small size spray at a rate of 100 l per 10 ares, so that the dose of the active ingredient would be 100 g per 10 ares. Thereafter, cultivation was carried out in a green house, and on the 21st day after the treatment, the herbicidal effects were examined in accordance with the standards as identified in Table 44.

barnyard grass (Ec) = assay: as above; parameters: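 0-5 growth inhibition grade; 5 = over 90%; 4 = 70-90%; 3 = 50-70%; 2 = 30-50%; 1 = 10-30%; 0 = under 10%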; details: dose 100 g active ingredient per 10 ares, examined on the 21st day after treatment, standards of Table 44
How it was run: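 Pre-emergence test: barnyard grass and green foxtail sown in upland soil, then soil surface sprayed with wettable-powder formulation at 100 g active ingredient per 10 ares (100 l per 10 ares). Grown in greenhouse; herbicidal effect scored on a rating scale 21 days after treatment.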

barnyard grass (Eo) = assay: Test Example 1: herbicidal effects by flooded paddy field treatment; parameters: herbicidal effects, Eo (barnyard grass):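 0-5 growth inhibition grade; 5 = over 90%; 4 = 70-90%; 3 = 50-70%; 2 = 30-50%; 1 = 10-30%; 0 = under 10%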; details: for Herbicidal effect index, Eo: dose 100 gai/10a, examined on 21st day after treatment, index 0-5 per Table 44; for herbicidal effects, Eo (barnyard grass): dose 100 g active ingredient per 10 ares, examined on the 21st day after treatment, standards of Table 44;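 as to Herbicidal effect index, Eo: 0-5 growth inhibition grade; 5 = over 90%; 4 = 70-90%; 3 = 50-70%; 2 = 30-50%; 1 = 10-30%; 0 = under 10%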
How it was run: (§1)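 Seeds sown in puddled paddy soil and flooded to 3 cm. Next day, a water-diluted wettable powder was dripped onto the water surface at 100 g active ingredient per 10 ares. Plants were grown in a greenhouse, and herbicidal effect was scored against a rating standard 21 days after treatment.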

monochoria (Mo) = assay: as above; parameters: herbicidal effects, Mo (monochoria):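 0-5 growth inhibition grade; 5 = over 90%; 4 = 70-90%; 3 = 50-70%; 2 = 30-50%; 1 = 10-30%; 0 = under 10%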; details: for Herbicidal effect index, Mo: dose 100 gai/10a, examined on 21st day after treatment, index 0-5 per Table 44; for herbicidal effects, Mo (monochoria): dose 100 g active ingredient per 10 ares, examined on the 21st day after treatment, standards of Table 44;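 as to Herbicidal effect index, Mo: 0-5 growth inhibition grade; 5 = over 90%; 4 = 70-90%; 3 = 50-70%; 2 = 30-50%; 1 = 10-30%; 0 = under 10%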
How it was run: as §1

SMILES | herbicidal effects, Se (green foxtail) (green foxtail (Se)) | herbicidal effects, Ec (barnyard grass) (barnyard grass (Ec)) | Herbicidal effect index, Eo (barnyard grass (Eo)) | Herbicidal effect index, Mo (monochoria (Mo)) | herbicidal effects, Eo (barnyard grass) (barnyard grass (Eo)) | herbicidal effects, Mo (monochoria) (monochoria (Mo))
CCC(c1cncnc1C(F)(F)F)N(C)C(=O)Cc1ccccc1 (racemic) [Compound 1-32] | 5 | 5 | 5 | 5 |  | 
CN(C(=O)Cc1ccc(F)cc1)C(c1cncnc1C(F)(F)F)C1CC1 (racemic) [Compound 1-35] | 5 | 5 | 5 | 5 |  | 
CC(C)C(c1cncnc1)N(C)C(=O)Cc1ccc(Cl)cc1 (racemic) [Compound 1-90] | 5 | 5 | 5 | 5 |  | 
CC(C)C(c1cncnc1C1CC1)N(C)C(=O)Cc1ccc(F)cc1 (racemic) [Compound 1-101] | 5 | 5 | 5 | 5 |  | 
Cc1ccc(CC(=O)N(C)C(c2cncnc2C2CC2)C(C)C)cc1 (racemic) [Compound 1-102] | 5 | 5 | 5 | 5 |  | 
CCCC(c1cncnc1C(F)(F)F)N(C)C(=O)Cc1ccc(Cl)cc1 (racemic) [Compound 1-114] | 5 | 5 | 5 | 5 |  | 
CC(C)c1ncncc1C(C(C)C)N(C)C(=O)Cc1ccccc1 (racemic) [Compound 1-128] | 5 | 5 |  |  | 5 | 4
CN(C(=O)Cc1ccc(F)cc1)C(c1cncnc1C(F)(F)F)C1CCCC1 (racemic) [Compound 1-138] | 5 | 5 |  |  | 5 | 5
CC(C)C(c1cncnc1C(F)(F)F)N(C)C(=O)Cc1cccc(F)c1F (racemic) [Compound 1-148] | 5 | 5 |  |  | 5 | 5
CSc1ncncc1C(C(C)C)N(C)C(=O)Cc1ccc(Cl)cc1 (racemic) [Compound 1-151] | 5 | 5 |  |  | 5 | 5
Cc1ncncc1C(N(C)C(=O)Cc1ccccc1)C(C)(C)C (racemic) [Compound 1-159] | 5 | 5 |  |  | 5 | 5
Cc1ncncc1C(N(C)C(=O)Cc1ccc(F)cc1)C(C)(C)C (racemic) [Compound 1-160] | 5 | 5 |  |  | 5 | 5
CC(C)C(c1cncnc1C(F)F)N(C)C(=O)Cc1ccccc1 (racemic) [Compound 1-163] | 5 | 5 |  |  | 5 | 5
